Test results taken from patent US20240318182A1, “METHODS OF TREATING OR PREVENTING SPINAL MUSCULAR ATROPHY” (BIOGEN MA INC., priority 2019, published 2024).

Experiments:
[1] = system: subjects with infantile-onset SMA; experiment: PK/PD (Emax) model of CSF Ctrough versus change from baseline in CHOP-INTEND; parameters: species or system human; conditions: model projection
Source text: Dashed (long), solid, and dashed (shorter) line represents the predicted PK/PD relationship when Emax was fixed at 10, 25, and 40, respectively. The observed data are divided based on 10 quantiles of CSF Ctrough values. The empty and filled circles represent the mean observed and predicted change in CHOP-INTEND from baseline, respectively.

[2] = system: subjects with infantile-onset SMA; experiment: Exposure-response and motor function / motor milestones in nusinersen clinical studies; type: in vivo, human
Method: During the nusinersen clinical development program, an exploratory exposure-response analysis was conducted using data for 14 subjects with infantile-onset SMA who received nusinersen. […] All subjects received maintenance doses of 12 mg every 4 months after Day 85. Separation of the response curves for the 2 cohorts began around Day 29 and became wider over the course of the study.

pNf-H = experiment: Plasma pNf-H biomarker in nusinersen clinical trials; type: in vivo, human; conditions: SMA types 1, 2 and presymptomatic infants
Source text: In nusinersen clinical trials with SMA types 1, 2 and presymptomatic infants, plasma pNf-H differentiated SMA individuals from healthy controls. […] Thus assessing the levels of neurofilament (e.g., pNf-H and/or NfL) can be a helpful biomarker prior or during treatment.

nonhuman primate = experiment: Nonhuman primate safety studies; type: in vivo
[3] = human, in vivo
Method: In studies to explore the relationship between nusinersen exposure and clinical response, data from subjects with infantile-onset SMA (subjects <6 months of age at diagnosis or symptom onset) were used. Analyses were conducted to characterize a quantitative PK/PD relationship for nusinersen and to determine if higher nusinersen exposure is associated with additional efficacy in the infantile-onset SMA population.

For nusinersen, the “CSF Ctrough that will achieve 90% of the maximum observed response” value [1] was 23 ng/mL, the “attainment of motor milestones” value ([2]; 12 mg loading doses versus 6 mg loading doses on Days 1, 15, 85, infantile-onset SMA) was “earlier and greater improvement” and the “correlation between nusinersen CSF exposure and motor function” value ([2]; 14 subjects with infantile-onset SMA, exploratory exposure-response analysis) was “statistically significant positive correlation”. The “correlation between CSF Ctrough and total motor milestones scores” value ([2]; infantile- or later-onset SMA, 12 mg as 4 loading doses then every 4 months, preliminary analysis, data not shown) was “positive correlation”, the “improvement in motor function” value ([2]; more frequent dosing: 12 mg loading Days 1, 15, 29, 64, 12 mg maintenance every 4 months, infantile-onset SMA) was “Greater improvement” and the “plasma pNf-H after treatment initiation” value (pNf-H) was “rapid decline followed by stabilization”. For the same substance, the “safety of 28 and 50 mg doses” value (nonhuman primate) was “support the use of these doses” and the “maximum mean [SD] CSF Ctrough” value [3] was 31.3 [24.8] ng/mL.
